One assay concerns calf thymus dsDNA. Briefly: DNA titration of nucleic acid dye-based substrates and controls. The class given is binding. The settings on record: 1 μM in pH 7.4 TE buffer, 30-minute incubation at room temperature, excitation 485 nm, emission 530 nm. As for the experimental part: In this example, nucleic acid dye-based caspase-3 substrates, Substrate No. 19 and Substrate No. 20, and respective control compounds, Compound No. 7 and Compound No. 24, were titrated with varying amounts of calf thymus dsDNA and the fluorescence signals of the solutions were recorded. Briefly, the substrates and the respective controls were prepared as generally described above in relation to Example 51. Multiple wells of a 96-well plate were loaded with the substrate (100 μL, 1 μM) or the respective control (100 μL, 1 μM). Each well was then titrated with 5 μL of one of the seven DNA stock solutions of 2.1, 4.1, 8.2, 16.4, 32.8 65.6 and 127.5 μg/mL concentration, respectively, in pH 7.4 TE buffer. After a 30-minute incubation at room temperature, the fluorescence reading of each well was recorded with a SpectraMax Germini XS fluorescence microplate reader (Molecular Devices Corp., Sunnyvale, Calif.), with the excitation wavelength and the emission collection wavelength set at 485 nm and 530 nm, respectively.
DNA titrations of Compound No. 21, a nucleic acid dye-based HDAC substrate, and Compound No. 23, a control associated with Compound No. 21, were titrated with varying amounts of calf thymus dsDNA in the manner generally described above in relation to Example 52.

Assay [1] has as its target T1, caspase-3 activity in Jurkat cells (Homo sapiens, UniProt P42574).
T1 construct: A flask of Jurkat cells were induced with staurosporine (1 μM) for apoptosis; endogenous in cells; host or cells: Jurkat cells induced with staurosporine
T1 sequence (P42574 29-175 limits assumed): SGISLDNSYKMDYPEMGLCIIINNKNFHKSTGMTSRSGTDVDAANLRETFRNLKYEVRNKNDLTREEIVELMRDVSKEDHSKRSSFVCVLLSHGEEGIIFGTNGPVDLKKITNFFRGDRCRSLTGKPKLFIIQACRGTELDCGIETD
T1 sequence (P42574 176-277 limits assumed): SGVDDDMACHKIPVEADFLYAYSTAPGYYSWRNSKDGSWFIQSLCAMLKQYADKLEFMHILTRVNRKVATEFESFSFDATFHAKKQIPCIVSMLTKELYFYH
In words: Detection of caspase-3 activity in live cells by flow cytometry. In kind it is cell-based. The settings on record: for caspase-3-positive cell identification: Jurkat cells, substrate 10 μM for 15 minutes, FL1 channel. As for the experimental part:
In this example, Jurkat cells were used to test whether Substrate No. 19 may be used to detect caspase-3 activity, or a lack thereof, within live cells by generating a nucleic acid dye that forms fluorescence upon binding to DNA. A flask of Jurkat cells were induced with staurosporine (1 μM) for apoptosis. Aliquots of the induced Jurkat cells were taken at 1 hour, 2.5 hours and 5 hours after induction, respectively, and aliquots of uninduced Jurkat cells, which served as negative controls, were taken at the same times. Substrate No. 19 was added to each Jurkat cell culture medium to give a final concentration of 10 μM and each resulting medium was allowed to incubate for 15 minutes before undergoing flow cytometry analysis using the FL1 channel for green fluorescence. […] For example, a stimulation time of 1 hour, 2.5 hours and 5 hours was associated with a 10%, 80% and 97% caspase-3-positive cell identification, respectively, as may be seen in the representations B, C and D of FIG. 4, respectively. One hour of staurosporine induction was required for Substrate No. 19 to reliably detect the presence of caspase-3-positive cells. Detection of intracellular caspase-3 activity via Substrate No. 19 is possible after only 15 minutes of incubation time, without necessitating cell destruction. Thus, it may be possible to continuously monitor enzymatic activity over more or less the entire course of cellular life via an enzyme substrate such as Substrate No. 19.
(A flow cytometer gives signals particle by particle.)

Assay [2] concerns the target T1, caspase-3 activity in Jurkat cells. In words: Detection of caspase-3 activity in live cells by fluorescence microscopy. The settings on record: Jurkat cells induced 4 hours with staurosporine (1 μM), substrate 10 μM for 15 minutes, confocal microscope, FIG. 5. The class given is cell-based. As for the experimental part:
(§1) Substrate No. 19 (10 μM) was incubated for 15 minutes with Jurkat cells that had been induced for 4 hours with staurosporine (1 μM). Separately, Substrate No. 19 (10 μM) was incubated for 15 minutes with uninduced Jurkat cells, which served as a negative control. For each of the cell cultures, cells (1×10^5) were taken, pelleted and then resuspended in Annexin V binding buffer (100 μL; HEPES buffer (10 mM, pH 7.4), NaCl (140 mM) and CaCl2 (2.5 mM)) in a tube, whereupon Texas Red-conjugated Annexin V (5 μL, 50 μg/mL) (Biotium Inc., Hayward, Calif.) was added to each tube. After 15 minutes of incubation at room temperature, a cell culture (5 μL) of the induced cells or the uninduced cells was spotted onto a slide, which was then mounted with a coverslip and sealed with nail polish. The cells were examined with a 510 Meta UV/Vis confocal microscope. […] The green fluorescence is indicative of nuclear DNA staining by the nucleic acid dye that is formed from substrate cleavage via caspase-3. The red fluorescence is indicative of the staining of phosphatidylserine (PS) by the Texas Red-conjugated Annexin V, a fluorescent stain that is used to identify apoptotic cells.

A further assay has as its target T2, caspase-3 (Homo sapiens, UniProt P42574).
T2 construct: purchased Biovision Inc., Mountain View, Calif
T2 sequence (P42574 29-175 limits assumed): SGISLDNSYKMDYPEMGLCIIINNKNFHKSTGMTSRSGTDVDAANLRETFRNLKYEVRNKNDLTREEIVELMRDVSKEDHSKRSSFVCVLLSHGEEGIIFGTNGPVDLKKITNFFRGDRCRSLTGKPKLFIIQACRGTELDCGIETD
T2 sequence (P42574 176-277 limits assumed): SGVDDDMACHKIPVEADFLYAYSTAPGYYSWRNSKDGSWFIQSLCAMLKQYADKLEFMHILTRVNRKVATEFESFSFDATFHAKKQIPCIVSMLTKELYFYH
Briefly: In vitro enzymatic assay for nucleic acid dye-based substrates for caspase-3. In kind it is biochemical. The settings on record: 10 μM, caspase-3 0.1 unit/mL, salmon sperm dsDNA 3.3 μg/mL, excitation 485 nm, emission 530 nm, FIG. 3. As for the experimental part:
In this example, nucleic acid dye-based caspase-3 substrates were assayed in the presence of caspase-3 and dsDNA by monitoring the fluorescence increase. In one example, Substrate No. 19 (10 μM) was incubated with caspase-3 (0.1 unit/mL) (Biovision Inc., Mountain View, Calif.) and salmon sperm dsDNA (3.3 μg/mL) in a caspase assay buffer (100 μL; HEPES buffer (50 mM, pH 7.4), NaCl (100 mM), EDTA (1 mM), CHAPS (0.1%), DTT (10 mM), PMSF (1 mM) and glycerol (10%)) in a well of a black 96-well plate. The plate was then placed in a SpectraMax Germini XS fluorescence microplate reader (Molecular Devices Corp., Sunnyvale, Calif.), with the excitation wavelength set at 485 nm and emission collection wavelength set at 530 nm, to measure the fluorescence signal over time, as shown in FIG. 3.

The next assay relates to calf thymus DNA. Briefly: Measurement of fluorescence spectra in the presence of DNA. The class given is binding. The note with it: 1 μM in pH 7.4 TE buffer, excess calf thymus DNA, excitation 600 nm, FIG. 1. As for the experimental part:
Stock solutions of nucleic acid dye-based substrates and respective control compounds were prepared by dissolving each compound in DMSO at 1 mg/mL concentration. The stock solutions were diluted into a pH 7.4 buffer (TE buffer) comprising Tris (10 mM), EDTA (1 mM) and NaCl (50 mM) to give a final concentration of 1 μM. Dye solutions containing an excess amount of DNA were prepared by adding a sufficient amount of calf thymus DNA calculated to yield a ratio of greater to or equal to 50 DNA base pairs per dye molecule. A fluorescence spectrum for each dye was recorded before and after the addition of DNA using a Jasco F-750 fluorescence spectrophotometer, with the fluorescence excitation wavelength set at λA-25 nm or 600 nm, where λA is the absorption maximum for each dye in the presence or the absence of DNA, and emission collection wavelength set at 660 nm.

A further assay concerns phosphatidylserine (PS). Briefly: Texas Red-Annexin V staining of apoptotic Jurkat cells by confocal microscopy. The class given is cell-based. The settings on record: Jurkat cells induced 4 hours with staurosporine (1 μM), 15 minutes of incubation at room temperature, confocal microscope, FIG. 5. As for the experimental part:
as §1

Take `C[n+]1c(C=C2C=CN(CCCCCC(=O)NCCN)c3ccccc32)sc2ccccc21` [Compound No. 7]: in the assay on calf thymus dsDNA, the “fluorescence response to dsDNA concentration (DNA titration)” value (from here on “fluorescence response”) is “fluorescently responsive to the amount of DNA present”.
The same measure, in the same setting: as for `CC(=O)N[C@H](CC(=O)O)C(=O)N[C@H](CCC(=O)O)C(=O)N[C@@H](C(=O)N[C@H](CC(=O)O)C(=O)NCCNC(=O)CCCN1C=CC(=CC=Cc2sc3ccccc3[n+]2C)c2ccccc21)C(C)C` [Substrate No. 20], the entry is “relatively insensitive to the presence of DNA”; as for `CC(=O)NCCCCC(NC(=O)OC(C)(C)C)C(=O)NCCNC(=O)CCCCCN1C=C/C(=C\c2sc3ccccc3[n+]2C)c2ccccc21.[I-]` (stereo not drawn) [Compound No. 21], “relatively insensitive to the presence of DNA”.
For the molecule `CC(=O)N[C@@H](CC(=O)O)C(=O)N[C@@H](CCC(=O)O)C(=O)N[C@H](C(=O)N[C@@H](CC(=O)O)C(=O)NCCNC(=O)CCCCCN1C=CC(=Cc2sc3ccccc3[n+]2C)c2ccccc21)C(C)C` [Substrate No. 19], the “fluorescence response” value with calf thymus dsDNA is reported as “relatively insensitive to the presence of DNA”. The caspase-3-positive cell identification in assay [1] (staurosporine (1 μM) stimulation 1 hour) came to 10%; in assay [1] (staurosporine (1 μM) stimulation 2.5 hours), 80%; in assay [1] (staurosporine (1 μM) stimulation 5 hours), 97%. Further, the “staurosporine induction required to reliably detect caspase-3-positive cells” value in assay [1] (live Jurkat cells, staurosporine 1 μM, substrate 10 μM) was “One”. For the same molecule, the “incubation time after which detection of intracellular caspase-3 activity is possible” value in assay [1] (live Jurkat cells, without cell destruction) was determined as 15 min. For the same molecule, the “fluorescent staining pattern of cells” value in assay [2] is recorded as “green fluorescence in cellular nuclei”. For the same molecule, the “fluorescence increase over time with caspase-3 and dsDNA” value on caspase-3 was “substrate for caspase-3 enzyme”.
With `C[n+]1c(/C=C/C=C2\C=CN(CCCC(=O)NCCN)c3ccccc32)sc2ccccc21` [Compound No. 24], the “fluorescence response” value in the assay with calf thymus dsDNA was “fluorescently responsive to the amount of DNA present”. Besides, the “fluorescence emission in the presence of DNA, control versus substrate” value in the assay on calf thymus DNA is “substantially more fluorescent than Substrate No. 20”.
For `C[n+]1c(/C=C2\C=CN(CCCCCC(=O)NCCNC(=O)C(CCCCN)NC(=O)OC(C)(C)C)c3ccccc32)sc2ccccc21.[I-]` (stereo not drawn) [Compound No. 23], the “fluorescence response” value in the assay on calf thymus dsDNA is listed as “fluorescently responsive to the amount of DNA present”.

B1: Texas Red-conjugated Annexin V: fluorescent stain (Biotium Inc.) that is used to identify apoptotic cells by staining phosphatidylserine (conjugate, UniProt P08758 2-320, looked up)
Annexin A5: AQVLRGTVTDFPGFDERADAETLRKAMKGLGTDEESILTLLTSRSNAQRQEISAAFKTLFGRDLLDDLKSELTGKFEKLIVALMKPSRLYDAYELKHALKGAGTNEKVLTEIIASRTPEELRAIKQVYEEEYGSSLEDDVVGDTSGYYQRMLVVLLQANRDPDAGIDEAQVEQDAQALFQAGELKWGTDEEKFITIFGTRSVSHLRKVFDKYMTISGFQIEETIDRETSGNLEQLLLAVVKSIRSIPAYLAETLYYAMKGAGTDDHTLIRVMVSRSEIDLFNIRKEFRKNFATSLYSMIKGDTSGDYKKALLLLCGEDD
modifications: Texas Red dye
notes: fluorescent stain (Biotium Inc.) that is used to identify apoptotic cells by staining phosphatidylserine
Take B1: in the assay with phosphatidylserine (PS), the “fluorescent staining pattern of cells” value was “red fluorescence on a cytoplasmic membrane”.

The values are drawn from patent US8778627B2, “Enzyme substrate comprising a functional dye and associated technology and methods” (Biotium, Inc., priority 2006, dated 2014).
